Patent publication US11337976B2 (Plexxikon Inc., priority 2011, dated 2022)

Test system: A375 melanoma cells (B-Raf V600E mutation)
Assay: A375 (A375_P-ERK) cell activity / cell growth inhibition assay
Format: cell-based, human
Conditions: Homo sapiens, A-375; A375 cells (text: A375_P-ERK)
Protocol: Compounds are assessed in a variety of cell based assays. For example human cell lines with B-RafV600E mutation (A375 melanoma, SKMEL3 melanoma, and COLO205 colon adenocarcinoma), as well as tumorigenic cell lines with wild-type B-RAF (SW620 colon adenocarcinoma) or with Ras mutations (SKMEL2 melanoma and IPC298 melanoma).
On day 1, cells are counted, then centrifuged in a conical tube for 5 minutes at 1000 rpm.
On day 2, compound at a maximum concentration of 5 mM is serially diluted 1:3 (e.g. 10 μL with 30 μL dimethyl sulfoxide) for a total of 8 point titration with DMSO as a control. A 1 μL aliquot of each dilution point and control is added to 249 μL growth media and 50 μL is added to a well containing cells, providing 10 μM compound at the maximum concentration point. The cells are incubated for 3 days at 37° C. in 5% CO2.
ATPlite is added 25 μL to each well, shake for 2 minutes, and the cells are incubated at room temperature for 10 minutes, then luminescence is read on Safire reader. The measured luminescence correlates directly with cell number, such that the reading as a function of compound concentration is used to determine the IC50 value.

Compound	IC50 [µM]
N#Cc1ccc(-c2cnc3[nH]cc(C(=O)c4cccc(NS(=O)(=O)N5CCCC5)c4F)c3c2)cn1 [P-0094, N-[3-[5-(6-cyano-3-pyridyl)-1H-pyrrolo[2,3-b]pyridine-3-carbonyl]-2-fluoro-phenyl]pyrrolidine-1-sulfonamide]	< 1
O=C(c1cccc(NS(=O)(=O)N2CCCC2)c1F)c1c[nH]c2ncc(-c3ccc(C(F)(F)F)nc3)cc12 [P-0095, N-[2-fluoro-3-[5-[6-(trifluoromethyl)-3-pyridyl]-1H-pyrrolo[2,3-b]pyridine-3-carbonyl]phenyl]pyrrolidine-1-sulfonamide]	< 1
Cc1ncc(-c2cnc3[nH]cc(C(=O)c4cccc(NS(=O)(=O)N(C)C)c4F)c3c2)cn1 [P-0097, 3-[3-(dimethylsulfamoylamino)-2-fluoro-benzoyl]-5-(2-methylpyrimidin-5-yl)-1H-pyrrolo[2,3-b]pyridine]	< 1
CCN(C)S(=O)(=O)Nc1cccc(C(=O)c2c[nH]c3ncc(-c4ccc(C(C)(C)O)cc4)cc23)c1F [P-0104, 3-[3-[[ethyl(methyl)sulfamoyl]amino]-2-fluoro-benzoyl]-5-[4-(1-hydroxy-1-methyl-ethyl)phenyl]-1H-pyrrolo[2,3-b]pyridine]	< 1
CN(C)c1ncc(-c2cnc3[nH]cc(C(=O)c4cccc(NS(=O)(=O)N(C)C)c4F)c3c2)cn1 [P-0106, 5-[2-(dimethylamino)pyrimidin-5-yl]-3-[3-(dimethylsulfamoylamino)-2-fluoro-benzoyl]-1H-pyrrolo[2,3-b]pyridine]	< 1
CN(C)S(=O)(=O)Nc1cccc(C(=O)c2c[nH]c3ncc(-c4cnc(N5CCCC5)nc4)cc23)c1F [P-0107, 3-[3-(dimethylsulfamoylamino)-2-fluoro-benzoyl]-5-(2-pyrrolidin-1-ylpyrimidin-5-yl)-1H-pyrrolo[2,3-b]pyridine]	< 1
O=C(c1cccc(NS(=O)(=O)N2CCCC2)c1F)c1c[nH]c2ncc(-c3cnc(N4CCCC4)nc3)cc12 [P-0109, N-[2-fluoro-3-[5-(2-pyrrolidin-1-ylpyrimidin-5-yl)-1H-pyrrolo[2,3-b]pyridine-3-carbonyl]phenyl]pyrrolidine-1-sulfonamide]	< 1
CN(C)S(=O)(=O)Nc1cccc(C(=O)c2c[nH]c3ncc(-c4ccc(C5CC5)nc4)cc23)c1F [P-0113, 5-(6-cyclopropyl-3-pyridyl)-3-[3-(dimethylsulfamoylamino)-2-fluoro-benzoyl]-1H-pyrrolo[2,3-b]pyridine]	< 1
CCCN(C)S(=O)(=O)Nc1cccc(C(=O)c2c[nH]c3ncc(-c4ccc(C5CC5)nc4)cc23)c1F [P-0114, 5-(6-cyclopropyl-3-pyridyl)-3-[2-fluoro-3-[[methyl(propyl)sulfamoyl]amino]benzoyl]-1H-pyrrolo[2,3-b]pyridine]	< 1
CN(CC1CC1)S(=O)(=O)Nc1cccc(C(=O)c2c[nH]c3ncc(-c4ccc(C5CC5)nc4)cc23)c1F [P-0115, 3-[3-[[cyclopropylmethyl(methyl)sulfamoyl]amino]-2-fluoro-benzoyl]-5-(6-cyclopropyl-3-pyridyl)-1H-pyrrolo[2,3-b]pyridine]	< 1
CCCN(C)S(=O)(=O)Nc1ccc(F)c(C(=O)c2c[nH]c3ncc(-c4cnc(OC)nc4)cc23)c1F [P-0116, 3-[2,6-difluoro-3-[[methyl(propyl)sulfamoyl]amino]benzoyl]-5-(2-methoxypyrimidin-5-yl)-1H-pyrrolo[2,3-b]pyridine]	< 1
CCC(C)S(=O)(=O)Nc1cccc(C(=O)c2c[nH]c3ncc(-c4ccc(C5(C#N)CC5)cc4)cc23)c1F (stereo not shown) [P-0227, N-[3-[5-[4-(1-cyanocyclopropyl)phenyl]-1H-pyrrolo[2,3-b]pyridine-3-carbonyl]-2-fluoro-phenyl]butane-2-sulfonamide]	< 1
CCC(C)S(=O)(=O)Nc1cccc(C(=O)c2c[nH]c3ncc(-c4cnc(C(C)C)nc4)cc23)c1F (stereo not shown) [P-0229, N-[2-fluoro-3-[5-(2-isopropylpyrimidin-5-yl)-1H-pyrrolo[2,3-b]pyridine-3-carbonyl]phenyl]butane-2-sulfonamide]	< 1
CCC(C)S(=O)(=O)Nc1cccc(C(=O)c2c[nH]c3ncc(-c4cnc(C)nc4)cc23)c1F (stereo not shown) [P-0231, N-[2-fluoro-3-[5-(2-methylpyrimidin-5-yl)-1H-pyrrolo[2,3-b]pyridine-3-carbonyl]phenyl]butane-2-sulfonamide]	< 1
CCC(C)S(=O)(=O)Nc1cccc(C(=O)c2c[nH]c3ncc(-c4cnc(N5CCOCC5)nc4)cc23)c1F (stereo not shown) [P-0236, N-[2-fluoro-3-[5-(2-morpholinopyrimidin-5-yl)-1H-pyrrolo[2,3-b]pyridine-3-carbonyl]phenyl]butane-2-sulfonamide]	< 1
CN(C)S(=O)(=O)Nc1ccc(F)c(C(=O)c2c[nH]c3ncc(-c4ccc(C5(C#N)CC5)cc4)cc23)c1F [P-0237, 5-[4-(1-cyanocyclopropyl)phenyl]-3-[3-(dimethylsulfamoylamino)-2,6-difluoro-benzoyl]-1H-pyrrolo[2,3-b]pyridine]	< 1

Other lines, results leading:

IC50 [µM]	Compound
< 1	N#Cc1cncc(-c2cnc3[nH]cc(C(=O)c4cccc(NS(=O)(=O)N5CCCC5)c4F)c3c2)c1 [P-0093, N-[3-[5-(5-cyano-3-pyridyl)-1H-pyrrolo[2,3-b]pyridine-3-carbonyl]-2-fluoro-phenyl]pyrrolidine-1-sulfonamide]
< 1	CN(C)S(=O)(=O)Nc1cccc(C(=O)c2c[nH]c3ncc(-c4cncc(C#N)c4)cc23)c1F [P-0098, 5-(5-cyano-3-pyridyl)-3-[3-(dimethylsulfamoylamino)-2-fluoro-benzoyl]-1H-pyrrolo[2,3-b]pyridine]
< 1	CN(C)S(=O)(=O)Nc1cccc(C(=O)c2c[nH]c3ncc(-c4ccc(C#N)nc4)cc23)c1F [P-0099, 5-(6-cyano-3-pyridyl)-3-[3-(dimethylsulfamoylamino)-2-fluoro-benzoyl]-1H-pyrrolo[2,3-b]pyridine]
< 1	CCN(C)S(=O)(=O)Nc1cccc(C(=O)c2c[nH]c3ncc(-c4cnc(C#N)nc4)cc23)c1F [P-0100, 5-(2-cyanopyrimidin-5-yl)-3-[3-[[ethyl(methyl)sulfamoyl]amino]-2-fluoro-benzoyl]-1H-pyrrolo[2,3-b]pyridine]
< 1	CCN(C)S(=O)(=O)Nc1cccc(C(=O)c2c[nH]c3ncc(-c4ccc(C#N)nc4)cc23)c1F [P-0102, 5-(6-cyano-3-pyridyl)-3-[3-[[ethyl(methyl)sulfamoyl]amino]-2-fluoro-benzoyl]-1H-pyrrolo[2,3-b]pyridine]
< 1	CN(C)S(=O)(=O)Nc1cccc(C(=O)c2c[nH]c3ncc(I)cc23)c1F [P-0110, 3-[3-(dimethylsulfamoylamino)-2-fluoro-benzoyl]-5-iodo-1H-pyrrolo[2,3-b]pyridine]
< 1	CCCN(C)S(=O)(=O)Nc1cccc(C(=O)c2c[nH]c3ncc(-c4cnc(C)nc4)cc23)c1F [P-0111, 3-[2-fluoro-3-[[methyl(propyl)sulfamoyl]amino]benzoyl]-5-(2-methylpyrimidin-5-yl)-1H-pyrrolo[2,3-b]pyridine]
< 1	Cc1ncc(-c2cnc3[nH]cc(C(=O)c4cccc(NS(=O)(=O)N(C)CC5CC5)c4F)c3c2)cn1 [P-0112, 3-[3-[[cyclopropylmethyl(methyl)sulfamoyl]amino]-2-fluoro-benzoyl]-5-(2-methylpyrimidin-5-yl)-1H-pyrrolo[2,3-b]pyridine]
> 1	CCCNS(=O)(=O)Nc1cccc(C(=O)c2c[nH]c3ncc(I)cc23)c1F [P-0117, [2-fluoro-3-(propylsulfamoylamino)phenyl]-(5-iodo-1H-pyrrolo[2,3-b]pyridin-3-yl)methanone]
< 1	CCC(C)S(=O)(=O)Nc1cccc(C(=O)c2c[nH]c3ncc(-c4cnc(OC)nc4)cc23)c1F (stereo not shown) [P-0224, N-[2-fluoro-3-[5-(2-methoxypyrimidin-5-yl)-1H-pyrrolo[2,3-b]pyridine-3-carbonyl]phenyl]butane-2-sulfonamide]
< 1	CCC(C)S(=O)(=O)Nc1cccc(C(=O)c2c[nH]c3ncc(-c4cnc(N5CCCC5)nc4)cc23)c1F (stereo not shown) [P-0225, N-[2-fluoro-3-[5-(2-pyrrolidin-1-ylpyrimidin-5-yl)-1H-pyrrolo[2,3-b]pyridine-3-carbonyl]phenyl]butane-2-sulfonamide]
< 1	CCC(C)S(=O)(=O)Nc1cccc(C(=O)c2c[nH]c3ncc(-c4cnc(NC5CC5)nc4)cc23)c1F (stereo not shown) [P-0226, N-[3-[5-[2-(cyclopropylamino)pyrimidin-5-yl]-1H-pyrrolo[2,3-b]pyridine-3-carbonyl]-2-fluoro-phenyl]butane-2-sulfonamide]
< 1	CCC(C)S(=O)(=O)Nc1cccc(C(=O)c2c[nH]c3ncc(-c4cnc(C5CC5)nc4)cc23)c1F (stereo not shown) [P-0228, N-[3-[5-(2-cyclopropylpyrimidin-5-yl)-1H-pyrrolo[2,3-b]pyridine-3-carbonyl]-2-fluoro-phenyl]butane-2-sulfonamide]
< 1	CCC(C)S(=O)(=O)Nc1cccc(C(=O)c2c[nH]c3ncc(-c4ccc(N(C)C)nc4)cc23)c1F (stereo not shown) [P-0230, N-[3-[5-[6-(dimethylamino)-3-pyridyl]-1H-pyrrolo[2,3-b]pyridine-3-carbonyl]-2-fluoro-phenyl]butane-2-sulfonamide]
< 1	O=C(c1cccc(NS(=O)(=O)N2CCCC2)c1F)c1c[nH]c2ncc(-c3cnc(N4CCOCC4)nc3)cc12 [P-0235, N-[2-fluoro-3-[5-(2-morpholinopyrimidin-5-yl)-1H-pyrrolo[2,3-b]pyridine-3-carbonyl]phenyl]pyrrolidine-1-sulfonamide]
